Experimental data published in the NIST ThermoML archive (doi:10.1016/j.tca.2015.06.017).

Experiment: xn = mol fraction of the nth substance listed
Conditions: Liquid, Vibrating tube method

CCC(C)Cl (stereo not drawn) [2-chlorobutane] + CCCCCCC
mass density [kg/m3]
Conditions | 303.15 K | 313.15 K | 323.15 K
100 kPa, x2 = 0.0524 | 847.91 | 836.56 | 825.09
100 kPa, x2 = 0.1018 | 835.49 | 824.33 | 813.02
100 kPa, x2 = 0.1968 | 813.06 | 802.22 | 791.28
100 kPa, x2 = 0.3006 | 790.36 | 779.88 | 769.26
100 kPa, x2 = 0.4029 | 769.73 | 759.54 | 749.24
100 kPa, x2 = 0.5017 | 751.19 | 741.34 | 731.3
100 kPa, x2 = 0.6008 | 733.91 | 724.36 | 714.64
100 kPa, x2 = 0.7023 | 717.52 | 708.18 | 698.73
100 kPa, x2 = 0.7977 | 703.14 | 694.03 | 684.8
100 kPa, x2 = 0.8986 | 688.99 | 680.16 | 671.19
100 kPa, x2 = 0.952 | 681.86 | 673.13 | 664.27
2000 kPa, x2 = 0.0524 | 850.2 | 839.05 | 827.83
2000 kPa, x2 = 0.1018 | 837.83 | 826.85 | 815.67
2000 kPa, x2 = 0.1968 | 815.38 | 804.68 | 793.94
2000 kPa, x2 = 0.3006 | 792.62 | 782.33 | 771.89
2000 kPa, x2 = 0.4029 | 771.9 | 761.96 | 751.76
2000 kPa, x2 = 0.5017 | 753.34 | 743.67 | 733.83
2000 kPa, x2 = 0.6008 | 736.05 | 726.67 | 717.08
2000 kPa, x2 = 0.7023 | 719.64 | 710.46 | 701.07
2000 kPa, x2 = 0.7977 | 705.19 | 696.31 | 687.1
2000 kPa, x2 = 0.8986 | 691.08 | 682.39 | 673.45
2000 kPa, x2 = 0.952 | 683.95 | 675.34 | 666.5
5000 kPa, x2 = 0.0524 | 853.75 | 842.87 | 831.91
5000 kPa, x2 = 0.1018 | 841.34 | 830.59 | 819.82
5000 kPa, x2 = 0.1968 | 818.82 | 808.31 | 797.9
5000 kPa, x2 = 0.3006 | 795.97 | 785.99 | 775.73
5000 kPa, x2 = 0.4029 | 775.25 | 765.53 | 755.62
5000 kPa, x2 = 0.5017 | 756.66 | 747.19 | 737.6
5000 kPa, x2 = 0.6008 | 739.33 | 730.09 | 720.78
5000 kPa, x2 = 0.7023 | 722.77 | 713.8 | 704.73
5000 kPa, x2 = 0.7977 | 708.3 | 699.58 | 690.71
5000 kPa, x2 = 0.8986 | 694.14 | 685.57 | 677.02
5000 kPa, x2 = 0.952 | 686.97 | 678.46 | 670.04
7000 kPa, x2 = 0.0524 | 856.02 | 845.3 | 834.54
7000 kPa, x2 = 0.1018 | 843.56 | 832.97 | 822.46
7000 kPa, x2 = 0.1968 | 820.99 | 810.78 | 800.49
7000 kPa, x2 = 0.3006 | 798.15 | 788.3 | 778.37
7000 kPa, x2 = 0.4029 | 777.41 | 767.84 | 758.11
7000 kPa, x2 = 0.5017 | 758.81 | 749.48 | 740.05
7000 kPa, x2 = 0.6008 | 741.44 | 732.35 | 723.19
7000 kPa, x2 = 0.7023 | 724.78 | 716.03 | 707.1
7000 kPa, x2 = 0.7977 | 710.27 | 701.8 | 693.06
7000 kPa, x2 = 0.8986 | 696.07 | 687.74 | 679.34
7000 kPa, x2 = 0.952 | 688.88 | 680.62 | 672.34
10000 kPa, x2 = 0.0524 | 859.35 | 848.77 | 838.27
10000 kPa, x2 = 0.1018 | 846.8 | 836.51 | 826.08
10000 kPa, x2 = 0.1968 | 824.17 | 814.23 | 804.11
10000 kPa, x2 = 0.3006 | 801.36 | 791.7 | 781.87
10000 kPa, x2 = 0.4029 | 780.55 | 771.16 | 761.62
10000 kPa, x2 = 0.5017 | 761.91 | 752.73 | 743.56
10000 kPa, x2 = 0.6008 | 744.48 | 735.56 | 726.61
10000 kPa, x2 = 0.7023 | 727.81 | 719.19 | 710.43
10000 kPa, x2 = 0.7977 | 713.22 | 704.84 | 696.28
10000 kPa, x2 = 0.8986 | 699 | 690.69 | 682.48
10000 kPa, x2 = 0.952 | 691.77 | 683.56 | 675.45
20000 kPa, x2 = 0.0524 | 869.52 | 859.69 | 849.8
20000 kPa, x2 = 0.1018 | 857 | 847.28 | 837.53
20000 kPa, x2 = 0.1968 | 834.1 | 824.81 | 815.4
20000 kPa, x2 = 0.3006 | 811.1 | 802.08 | 792.88
20000 kPa, x2 = 0.4029 | 790.07 | 781.34 | 772.5
20000 kPa, x2 = 0.5017 | 771.19 | 762.72 | 754.11
20000 kPa, x2 = 0.6008 | 753.6 | 745.36 | 737
20000 kPa, x2 = 0.7023 | 736.87 | 728.79 | 720.73
20000 kPa, x2 = 0.7977 | 722.07 | 714.29 | 706.35
20000 kPa, x2 = 0.8986 | 707.69 | 699.96 | 692.38
20000 kPa, x2 = 0.952 | 700.38 | 692.74 | 685.27
30000 kPa, x2 = 0.0524 | 878.79 | 869.48 | 860.04
30000 kPa, x2 = 0.1018 | 866.11 | 856.99 | 847.72
30000 kPa, x2 = 0.1968 | 843.05 | 834.35 | 825.47
30000 kPa, x2 = 0.3006 | 819.96 | 811.43 | 802.73
30000 kPa, x2 = 0.4029 | 798.75 | 790.51 | 782.02
30000 kPa, x2 = 0.5017 | 779.74 | 771.71 | 763.53
30000 kPa, x2 = 0.6008 | 761.98 | 754.16 | 746.23
30000 kPa, x2 = 0.7023 | 745.03 | 737.41 | 729.67
30000 kPa, x2 = 0.7977 | 730.14 | 722.74 | 715.26
30000 kPa, x2 = 0.8986 | 715.59 | 708.23 | 700.97
30000 kPa, x2 = 0.952 | 708.22 | 700.93 | 693.82
40000 kPa, x2 = 0.0524 | 887.22 | 878.27 | 869.34
40000 kPa, x2 = 0.1018 | 874.41 | 865.7 | 856.96
40000 kPa, x2 = 0.1968 | 851.38 | 842.91 | 834.4
40000 kPa, x2 = 0.3006 | 827.93 | 819.81 | 811.6
40000 kPa, x2 = 0.4029 | 806.62 | 798.72 | 790.72
40000 kPa, x2 = 0.5017 | 787.49 | 779.77 | 772.1
40000 kPa, x2 = 0.6008 | 769.55 | 762.09 | 754.63
40000 kPa, x2 = 0.7023 | 752.43 | 745.16 | 737.89
40000 kPa, x2 = 0.7977 | 737.42 | 730.38 | 723.24
40000 kPa, x2 = 0.8986 | 722.69 | 715.74 | 708.82
40000 kPa, x2 = 0.952 | 715.28 | 708.38 | 701.63
50000 kPa, x2 = 0.0524 | 894.96 | 886.46 | 877.82
50000 kPa, x2 = 0.1018 | 882.16 | 873.81 | 865.47
50000 kPa, x2 = 0.1968 | 858.96 | 850.85 | 842.71
50000 kPa, x2 = 0.3006 | 835.46 | 827.58 | 819.72
50000 kPa, x2 = 0.4029 | 813.98 | 806.37 | 798.76
50000 kPa, x2 = 0.5017 | 794.72 | 787.33 | 779.9
50000 kPa, x2 = 0.6008 | 776.69 | 769.48 | 762.28
50000 kPa, x2 = 0.7023 | 759.44 | 752.43 | 745.43
50000 kPa, x2 = 0.7977 | 744.29 | 737.47 | 730.63
50000 kPa, x2 = 0.8986 | 729.42 | 722.77 | 716.08
50000 kPa, x2 = 0.952 | 721.96 | 715.34 | 708.79
60000 kPa, x2 = 0.0524 | 902.31 | 894.03 | 885.83
60000 kPa, x2 = 0.1018 | 889.34 | 881.29 | 873.29
60000 kPa, x2 = 0.1968 | 866.09 | 858.17 | 850.37
60000 kPa, x2 = 0.3006 | 842.43 | 834.83 | 827.3
60000 kPa, x2 = 0.4029 | 820.82 | 813.47 | 806.2
60000 kPa, x2 = 0.5017 | 801.47 | 794.34 | 787.21
60000 kPa, x2 = 0.6008 | 783.34 | 776.43 | 769.46
60000 kPa, x2 = 0.7023 | 766 | 759.35 | 752.51
60000 kPa, x2 = 0.7977 | 750.71 | 744.21 | 737.59
60000 kPa, x2 = 0.8986 | 735.66 | 729.29 | 722.89
60000 kPa, x2 = 0.952 | 728.17 | 721.82 | 715.52
65000 kPa, x2 = 0.0524 | 905.77 | 897.67 | 889.59
65000 kPa, x2 = 0.1018 | 892.87 | 884.92 | 877.02
65000 kPa, x2 = 0.1968 | 869.57 | 861.74 | 854.06
65000 kPa, x2 = 0.3006 | 845.82 | 838.38 | 830.95
65000 kPa, x2 = 0.4029 | 824.21 | 816.9 | 809.85
65000 kPa, x2 = 0.5017 | 804.75 | 797.7 | 790.81
65000 kPa, x2 = 0.6008 | 786.56 | 779.7 | 772.98
65000 kPa, x2 = 0.7023 | 769.12 | 762.47 | 755.89
65000 kPa, x2 = 0.7977 | 753.9 | 747.31 | 740.95
65000 kPa, x2 = 0.8986 | 738.65 | 732.32 | 726.04
65000 kPa, x2 = 0.952 | 731.1 | 724.77 | 718.69
